# PMC5046105, “Improved affinity at the cost of decreased specificity: a recurring theme in PDZ-peptide interactions” (Scientific Reports, 2016)
# Ends that are not written are not given here.
# Tests used:
# pWT PDZ2 = assay: Proteomic peptide-phage display (ProP-PD) selection, pWT PDZ2 as bait; design: species or system human; settings: number of this peptide among 71 sequenced binding clones after round three of ProP-PD selection
# Method: (§1) The peptide-phage library used in the selections consisted of 50,549 heptapeptides representing the C-terminal sequences of the human proteome, fused to the C-terminus of the major coat protein pVIII of the M13 phage. This library was developed and successfully used for the rapid isolation of potential cellular PDZ domain targets, as previously reported.
# (§2) Individual binding clones were isolated and sequenced (see Table 1).
# (§3) Peptide-phage selections against PDZØ9 and pWT PDZ2 were performed with a previously developed library of 50549 heptapeptides, representing all of the C-terminal sequences in the human proteome. Peptides are fused to the C-terminus of the gene-8 major coat protein of M13 phage and hereby referred to as the naïve peptide library. Each of the two selections was performed twice. First, the two lipoyl-PDZ proteins were used to coat 96-well Maxisorp microtiter plates (NUNC) by incubation overnight at 4 °C (15 μg of protein in 100 μl of PBS per well). For the first round of selection, two wells were used for each PDZ, whereas a single well was used for the following selections. In parallel, wells were coated with lipoyl domain alone in order to remove nonspecific binders by a preselection step. The following day, wells were blocked with 200 μl of 0.5% BSA in PBS for 1 h at 4 °C, and washed four times with PT buffer [PBS, 0.05% Tween-20] before addition of phages. Phage pools representing the naïve peptide library were diluted 50-fold in PBS, precipitated with PEG/NaCl [4% PEG-8000 and 0.5 M NaCl] by incubation for 10 min on ice, pelleted by centrifugation (10 min, 16000 × g), and resuspended in PBS. For each selection round, 100 μl of resuspended phage was added to the preselection wells and incubated for 1 h at 4 °C before transfer to the target wells in which they were incubated for 2 h at 4 °C. The wells were washed five times with PT buffer and bound phages were eluted by direct infection of bacteria through the addition of 100 μl log-phase Escherichia coli Omnimax (Invitrogen) in 2TY, followed by 30 min incubation at 37 °C with shaking. Phage production was initiated by the addition of M13K07 helper phage (New England Biolabs) to a final concentration of 10^10 phage/ml and continued incubation at 37 °C for 45 min. The cultures were then transferred to 10 ml 2TY containing 100 μg/ml carbenicillin, 30 μg/ml kanamycin, and 1 mM IPTG, and shaken overnight at 37 °C. The bacteria were pelleted by centrifugation (10 min, 5300 × g), and the phage-containing supernatant was transferred to a new tube in which phages were precipitated with PEG/NaCl as described above, pelleted by centrifugation (15 min, 5300 × g), and resuspended in 1 ml of PBS. The resuspended phages, hereby-denoted Øout, were then used for the next round of selection. A total of five rounds were carried out and the enrichment of phages specific for the target was monitored by analysing aliquots of Øout in a phage ELISA performed as described below. For each of the five rounds of the respective selection, 10 μg of target protein and lipoyl domain were individually coated in parallel wells using the same type of plate, procedure, and blocking the following day, as described for the selection rounds above. When the 200 μl of blocking solution had been aspirated, 100 μl of resuspended phage was added and incubated for 30 min at 4 °C.
# PDZØ9 = assay: Proteomic peptide-phage display (ProP-PD) selection, PDZØ9 as bait; design: species or system human; settings: number of this peptide among 76 sequenced binding clones after round three of ProP-PD selection
# Method: as §1, §2, §3
# pWT PDZ2 L391F (human) [1] = biological target: pWT PDZ2 L391F (human) (UniProt Q12959); assay: stopped-flow spectroscopy
# Chain of pWT PDZ2 L391F (human) (Q12959 311-407, stated change not applied): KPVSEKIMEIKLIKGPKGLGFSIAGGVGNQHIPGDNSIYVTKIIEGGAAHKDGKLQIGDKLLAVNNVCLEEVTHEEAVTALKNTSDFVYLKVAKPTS
# [2] = biological target: PDZØ9, engineered variant (L391F/K392M) of pWT SAP97 PDZ2 (human) (UniProt Q12959); assay: stopped-flow spectroscopy
# Chain of PDZØ9, engineered variant (L391F/K392M) of pWT SAP97 PDZ2 (human) (Q12959 311-407, stated change not applied): as the sequence (Q12959 311-407, stated change not applied) above
# pWT PDZ2 K392M (human) = pWT PDZ2 K392M (human) (UniProt Q12959); assay: stopped-flow spectroscopy
# Chain of pWT PDZ2 K392M (human) (Q12959 311-407, stated change not applied): as the sequence (Q12959 311-407, stated change not applied) above
# [3] = biological target: Pseudo wild type SAP97 PDZ2 (second PDZ domain of synapse associated protein 97, I342W/C378A) (human) (UniProt Q12959); assay: stopped-flow spectroscopy
# Chain of Pseudo wild type SAP97 PDZ2 (second PDZ domain of synapse associated protein 97, I342W/C378A) (human) (Q12959 311-407, stated change not applied): as the sequence (Q12959 311-407, stated change not applied) above
# pWT PDZ2 L391F (human) [4] = biological target: pWT PDZ2 L391F (human) (UniProt Q12959); assay: ITC; PGKETQL peptide titrated into pWT PDZ2 L391F; iTC200, 10 °C, 50 mM potassium phosphate, pH 7.5; 1:1 model; duplicate titrations, average parameters
Molecule,"Prevalence, pWT PDZ2 (71) (pWT PDZ2)","Prevalence, PDZØ9 (76) (PDZØ9)",other results
IKTETTV,7,1,–
WKSETTV,1,1,–
RAISTDV,–,2,–
YKKETPL,–,1,–
AGKTTIL,–,1,–
AGRETTV,1,–,–
WKNETTV,1,1,–
KIKETTV,3,1,–
WKHETTV,5,4,–
KGTETTL,–,1,–
Ac-PGKETQL [PGKETQL peptide (C-terminus of SO1C1_HUMAN)],–,–,koff (pWT PDZ2 L391F (human) [1]): 5 s⁻¹; kon (pWT PDZ2 L391F (human) [1]): 2e+07 M⁻¹ s⁻¹; koff [2]: 3.9 s⁻¹; kon [2]: 1.6e+07 M⁻¹ s⁻¹; koff (pWT PDZ2 K392M (human)): 48 s⁻¹; kon (pWT PDZ2 K392M (human)): 1.8e+07 M⁻¹ s⁻¹; koff [3]: 51 s⁻¹; kon [3]: 1.8e+07 M⁻¹ s⁻¹; Kd (pWT PDZ2 L391F (human) [4]): 310 nM; stoichiometry N (pWT PDZ2 L391F (human) [4]): 0.76
